Test results: patent publication US20110021530A1, “PYRIDAZINE DERIVATIVES AND THEIR USE AS THERAPEUTIC AGENTS IN THE TREATMENT OF SKIN DISORDERS” (XENON PHARMACEUTICALS INC., priority 2008, published 2011)

What was measured:
[1] = target: T1, SCD (Mus musculus, UniProt P13516); assay: Mouse SCD IC50 determination for compounds active in the HTS assay; type: biochemical
T1 sequence (P13516 1-355): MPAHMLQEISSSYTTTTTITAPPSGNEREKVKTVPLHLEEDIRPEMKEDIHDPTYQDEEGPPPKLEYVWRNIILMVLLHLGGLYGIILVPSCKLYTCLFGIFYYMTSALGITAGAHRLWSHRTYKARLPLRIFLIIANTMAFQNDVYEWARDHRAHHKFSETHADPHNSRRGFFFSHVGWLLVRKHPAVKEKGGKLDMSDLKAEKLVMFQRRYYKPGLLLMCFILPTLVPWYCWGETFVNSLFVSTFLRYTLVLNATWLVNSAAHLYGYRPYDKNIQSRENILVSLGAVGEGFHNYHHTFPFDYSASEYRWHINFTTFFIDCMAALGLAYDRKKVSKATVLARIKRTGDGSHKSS
Experimental: The compounds are analyzed with an HTS microsomal assay. The activities are defined in terms of % SCD enzyme activity remaining at the selected concentration (e.g., 10 μM) of the test compounds.

[2] = test system: HEPG2; assay: HEPG2 IC50; type: cell-based; conditions: Homo sapiens
[3] = target: T2, stearoyl-CoA desaturase (SCD) (Mus musculus, UniProt P13516); assay: HTS microsomal assay of stearoyl-CoA desaturase inhibition using mouse liver microsomes; type: biochemical; conditions: % SCD enzyme activity remaining at 10 μM test compound
T2 construct: Reactions are started by adding 2 mg of microsomal protein; from tissue; host or cells: liver microsomes of male ICR mice on a high-carbohydrate, low fat diet
T2 sequence (P13516 1-355): T1 sequence (P13516 1-355)
Experimental: The absence of mitochondrial contamination is enzymatically assessed.
The compounds are analyzed with an HTS microsomal assay.

Row | melting point | IC50 [1] | IC50 [2] | Mouse microsome SCD activity % remaining @ 10 μM [3] | Structure (SMILES)
1 |  | 20 nM | 20 nM | 3% | O=C(NCCC1CC1)c1ccc(N2CCN(Cc3cc(F)ccc3C(F)(F)F)CC2)nn1 [6-[4-(5-FLUORO-2-TRIFLUOROMETHYLBENZYL)PIPERAZIN-1-YL]PYRIDAZINE-3-CARBOXYLIC ACID (2-CYCLOPROPYLETHYL)AMIDE]
2 |  | 350 nM | 440 nM | 15% | CC(C)CCNC(=O)c1ccc(N2CCN(C(=O)c3cnn(C)c3C(F)(F)F)CC2)nn1 [6-[4-(1-METHYL-5-TRIFLUOROMETHYL-1H-PYRAZOLE-4-CARBONYL)PIPERAZIN-1-YL]-PYRIDAZINE-3-CARBOXYLIC ACID (3-METHYLBUTYL)AMIDE]
3 |  | 80 nM | 240 nM | 8% | CC(C)CCNC(=O)c1ccc(N2CCN(C(=O)c3cnccc3C(F)(F)F)CC2)nn1 [6-[4-(4-TRIFLUOROMETHYLPYRIDINE-3-CARBONYL)PIPERAZIN-1-YL]PYRIDAZINE-3-CARBOXYLIC ACID (3-METHYLBUTYL)AMIDE]
4 |  | 480 nM | 120 nM | 8% | O=C(NCCC1CC1)c1ccc(N2CCN(C(=O)CC(O)(C(F)(F)F)C(F)(F)F)CC2)nn1 [6-[4-(4,4,4-TRIFLUORO-3-HYDROXY-3-TRIFLUOROMETHYLBUTYRYL)PIPERAZIN-1-YL]PYRIDAZINE-3-CARBOXYLIC ACID (2-CYCLOPROPYLETHYL)AMIDE]

Further lines, the molecule ahead of its results:

Row | Structure (SMILES) | melting point | IC50 [1] | IC50 [2] | Mouse microsome SCD activity % remaining @ 10 μM [3]
5 | CC(O)(C(=O)N1CCN(c2ccc(C(=O)NCCC3CC3)nn2)CC1)C(F)(F)F (centres unmarked) [Example 14.8, 6-[4-(3,3,3-TRIFLUORO-2-HYDROXY-2-METHYLPROPIONYL)PIPERAZIN-1-YL]PYRIDAZINE-3-CARBOXYLIC ACID (2-CYCLOPROPYLETHYL)AMIDE] | 181 to 183 °C |  |  | 
6 | CC(C)(C)C(O)CNC(=O)c1ccc(N2CCN(C(=O)c3ccccc3C(F)(F)F)CC2)nn1 (centres unmarked) [Example 15.29, 6-[4-(2-TRIFLUOROMETHYLBENZOYL)PIPERAZIN-1-YL]PYRIDAZINE-3-CARBOXYLIC ACID (2-HYDROXY-3,3-DIMETHYLBUTYL)AMIDE] | 236 to 240 °C |  |  | 
7 | O=C(NCCC1CC1)c1ccc(N2CCN(Cc3cc(Cl)ccc3Cl)CC2)nn1 [6-[4-(2,5-DICHLOROBENZYL)PIPERAZIN-1-YL]PYRIDAZINE-3-CARBOXYLIC ACID (2-CYCLOPROPYLETHYL)AMIDE] |  | 180 nM | 60 nM | 8%
8 | CCCCNC(=O)Nc1ccc(N2CCN(C(=O)c3ccccc3C(F)(F)F)CC2)nn1 [1-BUTYL-3-{6-[4-(2-TRIFLUOROMETHYLBENZOYL)PIPERAZIN-1-YL]PYRIDAZIN-3-YL}UREA] |  | 70 nM | 210 nM | 13%
9 | O=C(NCCC1CC1)c1ccc(N2CCN(Cc3ccc(F)cc3Cl)CC2)nn1 [6-[4-(2-CHLORO-4-FLUOROBENZYL)PIPERAZIN-1-YL]PYRIDAZINE-3-CARBOXYLIC ACID (2-CYCLOPROPYLETHYL)AMIDE] |  | 130 nM | 70 nM | 11%
10 | O=C(NCCCC1CC1)c1ccc(N2CCN(Cc3cc(F)ccc3C(F)(F)F)CC2)nn1 [6-[4-(5-FLUORO-2-TRIFLUOROMETHYLBENZYL)PIPERAZIN-1-YL]PYRIDAZINE-3-CARBOXYLIC ACID (3-CYCLOPROPYLPROPYL)AMIDE] |  | 180 nM | 60 nM | 8%
11 | CCOC(=O)CCNC(=O)Nc1ccc(N2CCN(C(=O)c3ccccc3C(F)(F)F)CC2)nn1 [3-(3-{6-[4-(2-TRIFLUOROMETHYLBENZOYL)PIPERAZIN-1-YL]-PYRIDAZIN-3-YL}-UREIDO)PROPIONIC ACID ETHYL ESTER] |  | 2770 nM | 5430 nM | 18%
12 | O=C(NCCc1ccccc1)Nc1ccc(N2CCN(C(=O)c3ccccc3C(F)(F)F)CC2)nn1 |  | 60 nM | 230 nM | 15%
